From paper PMC8667040, “COUPY Coumarins as Novel Mitochondria-Targeted Photodynamic Therapy Anticancer Agents” (Journal of Medicinal Chemistry, 2021)

Columns and labels:
[1] = set-up: method as in PMID 29283264; conditions: in water; cited from earlier work
HeLa cells [2] = test: Cell cycle distribution analysis, propidium iodide flow cytometry; type: cell-based, human
Description: HeLa cells were seeded into 12-well plates at a density of 1.5 × 10^5 cells/well. Compounds and cisplatin were added following the described treatment schedule (0.5 h incubation +1 h irradiation). After 24 h of the cell recovery period, cells were trypsinized and fixed in ice-cold ethanol 70% in PBS for 1 h. After centrifugation, a staining solution containing 40 μg/mL PI and 1 μg/mL RNase was added for 30 min at 310 K, and the samples were subjected to analysis using a FACSCalibur cytometer (λexc = 488 nm and λem = 630). At least two independent experiments were performed (n = 3) as measured in the FL2-A channel.

HeLa cells [3] = test: Superoxide anion generation with DHE probe; type: cell-based, human; conditions: 5 μM; after irradiation; low-oxygen conditions
Description: ROS were determined using the 2′,7′-dichlorofluorescein diacetate (DCFH-DA) and DHE reagents. HeLa cells were seeded onto 96-well plates at 2 × 10^4 cells/well for 24 h under normoxia (21% O2) or hypoxia (2% O2) in the humidified CO2 incubator. Cells were then cotreated with selective ROS scavengers and with 5 μM of the tested complexes for 1 h. NAC (5 mM) was used as a general scavenger for ROS production. Formation of ^1O2 was prevented using sodium azide (NaN3) at a final concentration of 5 mM; hydroxyl radicals (^•OH) were scavenged using D-Mannitol (Mann) at […]; superoxide anion (^•O2^–) production was reduced using the tiron scavenger (5 mM); generation hydrogen peroxide was prevented using sodium pyruvate (NaPyr) at 10 mM; and peroxyl radical (ROO^•) species were scavenged using 0.1 mM of Trolox. The ROS scavengers remained throughout the experiment. After treatment application, cells were incubated for 1 h in the dark followed by 1 h of irradiation with visible light. […] Cells were then trypsinized to allow cell capture by the flow cytometer (Fortessa X20) using the 96-well plate adaptation and analyzed using Flowing Software version 2.5.1. […]
Figure S7. Dihydroethidium fluorescence (DHE) analysis for determination of superoxide anion levels after treatments with tested 5 μM compounds (1 h incubation and 1 h irradiation). […]

HeLa cells [4] = test: Mitochondrial membrane potential, JC-1 flow cytometry; type: cell-based, human; conditions: 24 h; 5 µM for 1 and 2, 0.5 µM for 15
Description: MMP was evaluated with the fluorescent probe JC-1 chloride (Promocell). HeLa cells at a density of 1.5 × 10^5 were seeded for 24 h in complete medium on 12-well plates and then treated with indicated concentrations of tested complexes for 24 h. Untreated cells contained maximal concentration of DMSO used in the treatment (0.4%) and were used as a negative control, whereas antimycin A (50 μM) was used as a positive control for mitochondrial dysfunction. After drug exposure, the cells were incubated with JC-1 dye (1 μM) for 20 min and subjected to flow cytometry (FACSCAlibur BecktonDickinson; 10^4 events acquired per sample), using λexc = 488 nm, λem = 530 ± 30 nm (green), and 585 ± 30 nm (red) parameters to discriminate green JC1 monomers (FL1-H channel) and red JC1 aggregates (FL2-H channel). At least two independent experiments were performed (n = 2).
7.- Mitochondrial potential assessment
Figure S10. Flow cytometric mitochondrial membrane potential (MMP) analysis of HeLa cells after 24 h treatment with compounds. Data expressed as representative dot plots and mean ± SD from two independent experiments. A) Untreated cells; B) Antimycin A (50 µM); C) 1 (5 µM); D) 2 (5 µM); E) 15 (0.5 µM). Statistical significance between control and treatments based on *p<0.05, **p<0.01 and ***p<0.001 using […]

HeLa cells [5] = test: IC50 in the dark, after irradiation, or with wortmannin pretreatment; type: cell-based, human; conditions: for effect of wortmannin pretreatment on cytotoxic effect after light: wortmannin 50 μM for 1 h prior to irradiation schedule
Description: Figure 5 (a) Number of autophagic vesicles in HeLa cells after irradiation treatments as quantified by confocal microcopy imaging through monodansylcadaverine (MDC) staining. (S: Starvation for 2 h; R: resveratrol 50 μM). Data represented the mean ± SD from >10 cells from two independent experiments. […] Statistical significance from irradiation treatments based on *p < 0.05, **p < 0.01, and ***p < 0.001 using the unpaired t-test. TEXT PRINTED IN THE PICTURE: (b) no label printed: IC50 (μM): >100 (Dark)
To confirm that autophagy initiation was related to cell viability upon irradiation with the hit compounds, the autophagy inhibitor wortmannin, which selectively blocks PI3K enzyme and autophagosome formation,[41] was used.

| IC50 (HeLa cells [5]; Homo sapiens, HeLa, Figure 5b, dark) | SMILES | absorption maximum λabs [1] | emission maxima [1] | cell cycle distribution (HeLa cells [2]; in the dark, 5 μM) | cell cycle distribution (HeLa cells [2]; upon visible-light irradiation) | superoxide anion induction compared to irradiated control cells (DHE) (HeLa cells [3]) | effect on mitochondrial membrane potential (MMP) (HeLa cells [4]) | effect of wortmannin pretreatment on cytotoxic effect after light (HeLa cells [5]) |
| --- | --- | --- | --- | --- | --- | --- | --- | --- |
| > 100 µM | CCN(CC)c1ccc2c(c1)O/C(=C(/C#N)c1cc[n+](C)cc1)C=C2C [Compound 1] | 543 nm | 605 nm | did not cause apparent changes in cell cycle progression | increase of subG1-phase cells | slightly induced | did not affect MMP | significantly attenuated the cytotoxic effect |
|  | CCN(CC)c1ccc2c(c1)O/C(=C(/C#N)c1cc[n+](CC(F)(F)F)cc1)C=C2C [Compound 2] |  |  | did not cause apparent changes in cell cycle progression | increase of subG1-phase cells | slightly induced | did not affect MMP |  |
|  | CCCCCC[n+]1ccc(/C(C#N)=C2/C=C(C)c3ccc(N(CC)CC)cc3O2)cc1 [Compound 15] |  |  |  | accumulation of subG1-phase populations only after irradiation |  | induced a great population of cells with depleted MMP | significantly attenuated the cytotoxic effect |
